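Grown in 96-well plates, cells were treated for 48 hours with each compound at five concentrations. Insufficient inhibition: endpoint recorded as highest concentration tested. GI50 marks 50% less growth. TGI marks complete inhibition of growth.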
The molecules below were run on MDA-MB-468 breast (assay: DTP human tumour cell line panel, 48 h).

SMILES	GI50	TGI
Cc1ccc(-c2nc3nc(-c4ccc(Cl)cc4)nc(N4CCCNCC4)c3o2)cc1	1.78 µM	3.42 µM
O=C(/C=C/C12c3ccccc3C(c3ccccc31)C1C(=O)NC(=O)C12)c1ccco1 (stereo not given)	2.2 µM	4.93 µM
CCN(CC)CCCN1C(=O)c2c(c(C)c3c(oc4cc(O)ccc43)c2C)C1=O	1.57 µM	3.13 µM
COc1ccc(C(=O)c2ccc(OC)cc2OC)cc1	1.21 µM	3.89 µM
CCCCCCCCO/N=C\c1c2c(O)c3c(O)c(C)c4c(c3c1O)C(=O)C(C)(O/C=C\C(OC)C(C)C(OC(C)=O)C(C)C(O)C(C)C(O)C(C)/C=C\C=C(\C)C(=O)N2)O4 (stereo not given)	1.37 µM	5.11 µM
Cc1c(N)nc([C@H](CC(N)=O)NC[C@H](N)C(N)=O)nc1C(=O)N[C@H](C(=O)N[C@H](C)[C@@H](O)[C@H](C)C(=O)N[C@H](C(=O)NCCc1nc(-c2nc(C(=O)NCCC[S+](C)C)cs2)cs1)[C@@H](C)O)C(OC1OC(CO)C(O)C(O)C1OC1OC(CO)C(O)C(OC(N)=O)C1O)c1cnc[nH]1 (stereo not given in full)	2.48 µM	15.3 µM
Nc1nc(N)c2c(n1)NC(c1ccc(C(F)(F)F)cc1)CC(c1ccc(Nc3nc(NCCO)nc(Nc4ccc(Cl)cc4)n3)cc1)=N2 (stereo not given)	1.58 µM	3.21 µM
O=S(=O)(NCCNc1cc(-c2cn(-c3ccccc3)nc2-c2cccc(O)c2)ccn1)c1ccc(F)cc1	1.88 µM	5.33 µM
O=C1CN2CCC1C/C2=C\c1ccnc2c(Cl)cccc12 (stereo not given)	14.8 µM	57.9 µM
Cc1cccc(Oc2ccc(Nc3ncnc4ccc(NC(=O)CN5CCN(C)CC5)cc34)cc2Cl)c1	0.448 µM	2.07 µM
O=C(/C=C/c1ccc2c(c1)OCO2)c1ccccc1	13.9 µM	28 µM
O=C1CC(N2C(=O)/C(=C/C(Cl)=C\c3ccc([N+](=O)[O-])cc3)SC2=S)C(=O)N1c1ccc(Cl)cc1 (stereo not given)	1.33 µM	3.1 µM
Fc1ccc(Nc2ccc3cc(OCCCN4CCOCC4)ccc3n2)cc1F	3.35 µM	19.3 µM
O=[N+]([O-])c1ccccc1/C=C/C=C1c2ccccc2-c2ccccc21	54.6 µM	> 100 µM
C[C@]12CC[C@H]3[C@@H](CC=C4C[C@@H](O)CC[C@@]43C)[C@@H]1C/C(=C\c1cccc(OCCCn3ccnc3)c1)[C@@H]2O	7.43 µM	31.3 µM
C[C@@H](Oc1cc(-c2cnn(C3CC4(CCNCC4)C3)c2)cnc1N)c1c(F)ccc(Cl)c1Cl	0.562 µM	2.12 µM
CN(C)c1ccc2[nH]c(O)c(C=Nc3ccc(S(N)(=O)=O)cc3)c2c1	> 25 µM	> 25 µM
CC1=C([Se]CC(OC(=O)[C@@H](CSSC(C)(C)C)NC(=O)C(C)(C)C)C(=O)NCCCCCC(=O)OCc2ccccc2)C(=O)c2ccccc2C1=O (stereo not given in full)	2.19 µM	4.35 µM
O=C(CSc1nc2sc3c(c2c(=O)n1-c1ccccc1)CCCCC3)N/N=C/c1ccc(F)cc1	2.35 µM	8.02 µM
C/C(=C\c1ccn(-c2ccc(N)cc2C(F)(F)F)n1)[C@@H]1C[C@@H]2O[C@]2(C)CCC[C@H](C)[C@H](O)[C@@H](C)C(=O)C(C)(C)[C@@H](O)CC(=O)O1	0.289 µM	0.873 µM
Cc1cc(S(=O)(=O)/N=C(\N)n2nc(C)c(C)c2C)c(SCc2ccccc2)cc1Cl	12.1 µM	92.4 µM
C=C1C(=O)O[C@H]2[C@H]1CC/C(Cn1cc(Cn3ccc4cc(Cl)ccc43)nn1)=C\CC[C@@]1(C)O[C@@H]21	0.908 µM	2.55 µM
CN1CCN(CCCOc2ccc3ncnc(Nc4ccc(Oc5cccc(C(F)(F)F)c5)c(Cl)c4)c3c2)CC1	1.07 µM	2.87 µM

SMILES	GI50	TGI
CNC(=O)c1ccc(Nc2nc(OC3CCCC3)c3c(-c4ccc5nc(C)oc5c4)c[nH]c3n2)c(OC)c1	0.424 µM	27.6 µM
O=C1Nc2cc(OC(F)(F)F)ccc2Oc2ccc(-c3ccnc(N4CC[C@H](O)C4)c3)cc21	0.0129 µM	0.368 µM
N#C/C(=C\c1ccc(Cl)cc1)n1nnc2cc(F)c(F)cc21	1.47 µM	3.23 µM
COc1cc(N)ccc1Nc1c2ccccc2nc2ccccc12	11.8 µM	28.8 µM
CS(=O)(=O)Nc1cc(-c2ccc3ncc(C#N)c(NCc4ccccc4)c3c2)cnc1Cl	0.0819 µM	0.896 µM
Cc1c(N(C(=O)c2cc(-c3cc(Cl)ccc3C(=O)N3Cc4ccccc4C[C@H]3CN3CCOCC3)n(C)c2C)c2ccc(O)cc2)cc(C#N)n1C	4.7 µM	25.2 µM
C=C1C(=O)O[C@H]2[C@H]1CC/C(COC(=O)N[C@@H](Cc1c[nH]c3ccccc13)C(=O)OC)=C\CC[C@@]1(C)O[C@@H]21	1.23 µM	3.05 µM
CCN(CC)CCCC(C)N/C(c1cccc(OC)c1)=c1\c(=O)[nH]n(-c2c3ccccc3nc3ccccc23)c(=O)\c1=C(/NC(C)CCCN(CC)CC)c1cccc(OC)c1 (stereo not given)	1.18 µM	3.09 µM
CN1CCN(Cc2ccc(NC(=O)c3[nH]ncc3Nc3ccnc4ccsc34)cc2)CC1	2.12 µM	5.54 µM
CCC[C@H](Nc1nc(-c2ccc(NC(=O)NCC)c(OC)c2)ncc1C)c1cccnc1	0.0246 µM	0.0709 µM
Nc1c(C(=O)Nc2cccc3ccccc23)sc2nc3c(cc12)CCCCC3	0.231 µM	> 50 µM
O=C(Nc1nc(-c2ccc(Cl)cc2)cs1)c1ccc(O)c(O)c1	3.77 µM	25.5 µM
Cc1cc(Nc2ncc(Cl)c(Nc3ccccc3S(=O)(=O)C(C)C)n2)c(OC(C)C)cc1C1CCNCC1	1.41 µM	3.14 µM
O=c1[nH]cnc2c1nnn2[C@@H]1O[C@H](CO)[C@@H](O)[C@H]1O	1.54 µM	24.5 µM
Cc1cc(Nc2nc(N3CCOCC3)nc3ccccc23)n[nH]1	4.36 µM	38.2 µM
Cc1nn(-c2ccccc2)cc1/C=N/Nc1nc(Nc2ccccc2)nc(Nc2ccc(S(N)(=O)=O)cc2)n1	1.52 µM	3.27 µM
CCOC(=O)c1ccc2[nH]c(Cc3[nH]c4ccc(C(=O)OCC)cc4c3C)c(C)c2c1	5.59 µM	28.9 µM
COc1cc(C(=O)O)ccc1NC(=O)[C@@H]1N[C@@H](CC(C)(C)C)[C@](C#N)(c2ccc(Cl)cc2F)[C@H]1c1cccc(Cl)c1F	5.12 µM	16.2 µM
O=C(Nc1cccc(-c2nc3ccccc3[nH]2)c1)c1cccc(NC(=O)c2ccco2)c1	1.74 µM	3.99 µM
C[C@]12CC[C@H](O)C[C@@H]1CC[C@@H]1[C@@H]2CC[C@@]2(C)[C@H]1CC[C@@H]2[C@](C)(O)CCc1ccc(F)cc1	2.44 µM	28.2 µM
C=C1C(=O)O[C@H]2[C@H]1CC/C(COC(=O)NCCc1c[nH]c3ccccc13)=C\CC[C@@]1(C)O[C@@H]21	1.38 µM	4.32 µM
CC(=O)O[C@H]1C(=O)[C@@]2(C)[C@H]([C@H](OC(=O)c3ccccc3)[C@]3(O)C[C@H](OC(=O)[C@H](OC(=O)CCC(=O)OC4CCC(S/N=C(N)/N=C(\N)N(C)C)CC4)[C@@H](NC(=O)c4ccccc4)c4ccccc4)C(C)=C1C3(C)C)[C@]1(OC(C)=O)CO[C@@H]1C[C@@H]2O (stereo not given in full)	0.00732 µM	0.0433 µM
